Source: ChEMBL document CHEMBL1136191, “Cyclin-dependent kinase 4 inhibitors as a treatment for cancer. Part 1: identification and optimisation of substituted 4,6-bis anilino pyrimidines” (Bioorg Med Chem Lett, 2003)

Key:
[1] = target: Cyclin-dependent kinase 4 (Homo sapiens, UniProt P11802); assay: In vitro inhibition of Cyclin-dependent kinase 4 was determined.
[2] = target: Cyclin-dependent kinase 2 (Homo sapiens, UniProt P24941); assay: In vitro inhibition of Cyclin-dependent kinase 2 was determined.

Chain of Cyclin-dependent kinase 4 (P11802 whole entry): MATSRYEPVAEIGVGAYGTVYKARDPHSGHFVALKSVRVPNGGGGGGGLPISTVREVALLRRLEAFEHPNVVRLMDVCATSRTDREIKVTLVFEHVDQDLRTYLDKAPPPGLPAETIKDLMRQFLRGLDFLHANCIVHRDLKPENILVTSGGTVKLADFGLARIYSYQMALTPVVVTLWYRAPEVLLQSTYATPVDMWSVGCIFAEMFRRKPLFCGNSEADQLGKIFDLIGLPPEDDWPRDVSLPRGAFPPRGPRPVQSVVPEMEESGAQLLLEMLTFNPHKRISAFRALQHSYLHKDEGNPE

| SMILES | IC50 [1] | IC50 [2] |
| --- | --- | --- |
| CN(C)CC(O)COc1ccc(Nc2cc(Nc3c(F)cccc3F)ncn2)cc1 (configuration not stated) | 9 µM | – |
| COc1ccccc1Nc1cc(Nc2ccc(OCC(O)CN(C)C)cc2)ncn1 (configuration not stated) | 23 µM | 85 µM |
| CN(C)CC(O)COc1ccc(Nc2cc(Nc3ccc(F)cc3F)ncn2)cc1 (configuration not stated) | 15 µM | 93 µM |
| CN(C)CC(O)COc1ccc(Nc2cc(Nc3ccccc3)ncn2)cc1 (configuration not stated) | 33 µM | > 100 µM |
| CN(C)CC(O)COc1ccc(Nc2cc(Nc3ccccc3F)ncn2)cc1 (configuration not stated) | 27 µM | > 100 µM |
| CN(C)CC(O)COc1ccc(Nc2cc(Nc3ccccc3Cl)ncn2)cc1 (configuration not stated) | 8 µM | 95 µM |
| CC(C)c1ccccc1Nc1cc(Nc2ccc(OCC(O)CN(C)C)cc2)ncn1 (configuration not stated) | 18 µM | 24 µM |

Other lines, results leading:

| IC50 [1] | IC50 [2] | SMILES |
| --- | --- | --- |
| 4 µM | 28 µM | CN(C)CC(O)COc1ccc(Nc2cc(Nc3ccccc3Br)ncn2)cc1 (configuration not stated) |
| 0.8 µM | 19 µM | C#CCN(c1cc(Nc2ccc(OCC(O)CN(C)C)cc2)ncn1)c1cc(Cl)ccc1Cl (configuration not stated) |
| 0.05 µM | 1 µM | CN(C)CC(O)COc1ccc(Nc2cc(N(CC#N)c3cc(Cl)ccc3Cl)ncn2)cc1 (configuration not stated) |
| 6 µM | – | CN(C)CC(O)COc1ccc(Nc2cc(Nc3cc(C(F)(F)F)ccc3F)ncn2)cc1 (configuration not stated) |
| 5 µM | > 100 µM | CN(C)CC(O)COc1ccc(Nc2cc(N(Cc3ccccc3)c3cc(Cl)ccc3Cl)ncn2)cc1 (configuration not stated) |
| 2 µM | 25 µM | CN(C)CC(O)COc1ccc(Nc2cc(Nc3ccccc3[N+](=O)[O-])ncn2)cc1 (configuration not stated) |
| 0.5 µM | 5 µM | CN(C)CC(O)COc1ccc(Nc2cc(N(CCC#N)c3cc(Cl)ccc3Cl)ncn2)cc1 (configuration not stated) |
| 1 µM | 22 µM | CN(C)CC(O)COc1ccc(Nc2cc(Nc3cc(Cl)ccc3Cl)ncn2)cc1 (configuration not stated) |
| 8 µM | 39 µM | Cc1ccccc1Nc1cc(Nc2ccc(OCC(O)CN(C)C)cc2)ncn1 (configuration not stated) |
| 0.1 µM | 3 µM | Cc1ccc(N(CC#N)c2cc(Nc3ccc(OCC(O)CN(C)C)cc3)ncn2)c(Br)c1 (configuration not stated) |
